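Values below derive from 48-hour exposures of cells grown in 96-well plates, with endpoints linearly interpolated between the two concentrations bracketing the appropriate inhibition level. TGI is the concentration that stops growth completely.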 Where a SMILES comes first, the peptide text is derived from it. The star is where a group is joined. Cbz = O=C(OCc1ccccc1)*; CH2Cl = ClC*
Legend:
Assay in all cases: growth of human tumour cells (NCI), 48 h
COLO 205 colon = system: COLO 205 colon
CAKI-1 renal = system: CAKI-1 renal
NCI/ADR-RES ovarian = system: NCI/ADR-RES ovarian
HCT-116 colon = system: HCT-116 colon
HL-60(TB) leukemia = system: HL-60(TB) leukemia
TK-10 renal = system: TK-10 renal
SF-268 CNS = system: SF-268 CNS
KM12 colon = system: KM12 colon
NCI-H460 lung = system: NCI-H460 lung
SF-539 CNS = system: SF-539 CNS
HOP-92 NSCLC = system: HOP-92 NSCLC
U251 CNS = system: U251 CNS
RXF 393 renal = system: RXF 393 renal
EKVX NSCLC = system: EKVX NSCLC
SK-MEL-5 melanoma = system: SK-MEL-5 melanoma
LOX IMVI melanoma = system: LOX IMVI melanoma
OVCAR-5 ovarian = system: OVCAR-5 ovarian
MDA-N = system: MDA-N
NCI-H226 lung = system: NCI-H226 lung
IGROV1 ovarian = system: IGROV1 ovarian
HCC-2998 colon = system: HCC-2998 colon
OVCAR-4 ovarian = system: OVCAR-4 ovarian
SK-MEL-2 melanoma = system: SK-MEL-2 melanoma
MALME-3M melanoma = system: MALME-3M melanoma
MOLT-4 leukemia = system: MOLT-4 leukemia
SNB-19 CNS = system: SNB-19 CNS
K-562 leukemia = system: K-562 leukemia
786-0 renal = system: 786-0 renal
M14 melanoma = system: M14 melanoma
SR leukemia = system: SR leukemia
SNB-75 CNS = system: SNB-75 CNS
SN12C renal = system: SN12C renal
RPMI-8226 leukemia = system: RPMI-8226 leukemia
MDA-MB-435 = system: MDA-MB-435
MCF7 breast = system: MCF7 breast
SK-MEL-28 melanoma = system: SK-MEL-28 melanoma
BT-549 breast = system: BT-549 breast
MDA-MB-231 breast = system: MDA-MB-231 breast
UACC-257 melanoma = system: UACC-257 melanoma
NCI-H522 lung = system: NCI-H522 lung
T-47D breast = system: T-47D breast
SK-OV-3 ovarian = system: SK-OV-3 ovarian
SW-620 colon = system: SW-620 colon
UO-31 renal = system: UO-31 renal
ACHN renal = system: ACHN renal
A549 NSCLC = system: A549 NSCLC
DU-145 prostate = system: DU-145 prostate
PC-3 prostate = system: PC-3 prostate
HS 578T breast = system: HS 578T breast
SF-295 CNS = system: SF-295 CNS
HCT-15 colon = system: HCT-15 colon
HOP-62 NSCLC = system: HOP-62 NSCLC
OVCAR-3 ovarian = system: OVCAR-3 ovarian
HT29 colon = system: HT29 colon
OVCAR-8 ovarian = system: OVCAR-8 ovarian
A498 renal = system: A498 renal
CCRF-CEM leukemia = system: CCRF-CEM leukemia
UACC-62 melanoma = system: UACC-62 melanoma
NCI-H23 lung = system: NCI-H23 lung

Clc1ccc(C2C3COc4ccccc4C3=NN2c2ccccc2)cc1 (configuration not stated)
TGI (COLO 205 colon): > 100 µM
TGI (CAKI-1 renal): > 100 µM
TGI (NCI/ADR-RES ovarian): > 100 µM
TGI (HCT-116 colon): > 100 µM
TGI (HL-60(TB) leukemia): > 68.2 µM
TGI (TK-10 renal): > 100 µM
TGI (SF-268 CNS): > 100 µM
TGI (KM12 colon): > 100 µM
TGI (NCI-H460 lung): > 100 µM
TGI (SF-539 CNS): > 100 µM
TGI (HOP-92 NSCLC): > 100 µM
TGI (U251 CNS): > 100 µM
TGI (RXF 393 renal): > 100 µM
TGI (EKVX NSCLC): > 100 µM
TGI (SK-MEL-5 melanoma): > 100 µM
TGI (LOX IMVI melanoma): > 48.7 µM
TGI (OVCAR-5 ovarian): > 100 µM
TGI (MDA-N): > 67.4 µM
TGI (NCI-H226 lung): > 100 µM
TGI (IGROV1 ovarian): > 100 µM
TGI (HCC-2998 colon): > 100 µM
TGI (OVCAR-4 ovarian): > 100 µM
TGI (SK-MEL-2 melanoma): > 100 µM
TGI (MALME-3M melanoma): > 100 µM
TGI (MOLT-4 leukemia): 47 µM
TGI (SNB-19 CNS): > 93.5 µM
TGI (K-562 leukemia): 21.9 µM
TGI (786-0 renal): > 96.4 µM
TGI (M14 melanoma): > 100 µM
TGI (SR leukemia): 1.78 µM
TGI (SNB-75 CNS): 98.9 µM
TGI (SN12C renal): > 100 µM
TGI (RPMI-8226 leukemia): 7.32 µM
TGI (MDA-MB-435): > 100 µM
TGI (MCF7 breast): > 100 µM
TGI (SK-MEL-28 melanoma): > 100 µM
TGI (BT-549 breast): > 100 µM
TGI (MDA-MB-231 breast): > 100 µM
TGI (UACC-257 melanoma): > 100 µM
TGI (NCI-H522 lung): > 100 µM
TGI (T-47D breast): > 100 µM
TGI (SK-OV-3 ovarian): > 100 µM
TGI (SW-620 colon): > 32.7 µM
TGI (UO-31 renal): > 100 µM
TGI (ACHN renal): > 100 µM
TGI (A549 NSCLC): > 100 µM
TGI (DU-145 prostate): > 100 µM
TGI (PC-3 prostate): > 100 µM
TGI (HS 578T breast): > 100 µM
TGI (SF-295 CNS): > 100 µM
TGI (HCT-15 colon): > 100 µM
TGI (HOP-62 NSCLC): > 100 µM
TGI (OVCAR-3 ovarian): > 100 µM
TGI (HT29 colon): > 100 µM
TGI (OVCAR-8 ovarian): > 100 µM
TGI (A498 renal): > 100 µM
TGI (CCRF-CEM leukemia): > 37.7 µM
TGI (UACC-62 melanoma): > 100 µM
TGI (NCI-H23 lung): > 100 µM

CC(C)CC(NC(=O)OCc1ccccc1)C(=O)NC(Cc1ccccc1)C(=O)CCl (stereo not drawn) (Cbz-Leu-Phe-CH2Cl; configuration not given here)
TGI (COLO 205 colon): 8.44 µM
TGI (CAKI-1 renal): 12.5 µM
TGI (NCI/ADR-RES ovarian): 11.4 µM
TGI (HCT-116 colon): 3.31 µM
TGI (HL-60(TB) leukemia): 3.53 µM
TGI (TK-10 renal): 3.24 µM
TGI (SF-268 CNS): 9.88 µM
TGI (KM12 colon): 35.3 µM
TGI (NCI-H460 lung): 18 µM
TGI (SF-539 CNS): 10.2 µM
TGI (HOP-92 NSCLC): 3.73 µM
TGI (U251 CNS): 22 µM
TGI (RXF 393 renal): 3.3 µM
TGI (EKVX NSCLC): 34.5 µM
TGI (SK-MEL-5 melanoma): 3.5 µM
TGI (LOX IMVI melanoma): 2.08 µM
TGI (OVCAR-5 ovarian): 15.3 µM
TGI (MDA-N): 3.19 µM
TGI (NCI-H226 lung): 3.98 µM
TGI (IGROV1 ovarian): 4.11 µM
TGI (HCC-2998 colon): 26.1 µM
TGI (OVCAR-4 ovarian): 4.69 µM
TGI (SK-MEL-2 melanoma): 7.37 µM
TGI (MALME-3M melanoma): 4.16 µM
TGI (MOLT-4 leukemia): 4.33 µM
TGI (SNB-19 CNS): > 56.8 µM
TGI (K-562 leukemia): 6.77 µM
TGI (786-0 renal): 3.08 µM
TGI (M14 melanoma): 3.45 µM
TGI (SR leukemia): 4.66 µM
TGI (SNB-75 CNS): 9.32 µM
TGI (SN12C renal): 3.39 µM
TGI (RPMI-8226 leukemia): 5.15 µM
TGI (MDA-MB-435): 6.56 µM
TGI (MCF7 breast): 7.85 µM
TGI (SK-MEL-28 melanoma): 3.97 µM
TGI (BT-549 breast): 6.16 µM
TGI (MDA-MB-231 breast): 3.3 µM
TGI (UACC-257 melanoma): 23.7 µM
TGI (NCI-H522 lung): 2.74 µM
TGI (T-47D breast): 4.89 µM
TGI (SK-OV-3 ovarian): 16.1 µM
TGI (SW-620 colon): 3.94 µM
TGI (UO-31 renal): 18.2 µM
TGI (ACHN renal): 11.3 µM
TGI (A549 NSCLC): 39.4 µM
TGI (DU-145 prostate): > 100 µM
TGI (PC-3 prostate): 9.41 µM
TGI (HS 578T breast): 25.7 µM
TGI (SF-295 CNS): 43.7 µM
TGI (HCT-15 colon): 3.34 µM
TGI (HOP-62 NSCLC): 30.5 µM
TGI (OVCAR-3 ovarian): 8.26 µM
TGI (HT29 colon): 7.54 µM
TGI (OVCAR-8 ovarian): 5.11 µM
TGI (A498 renal): 71.2 µM
TGI (CCRF-CEM leukemia): 0.776 µM
TGI (UACC-62 melanoma): 7.82 µM
TGI (NCI-H23 lung): 4.9 µM

CC1OC(OC2C(O)COC(OC3C(C)OC(OC4C(OC(=O)[C@]56CCC(C)(C)C[C@@H]5C5=CCC7[C@@]8(C)C[C@H](O)[C@H](OC9OC(CO)C(O)C(O)C9O)[C@@](C)(CO)[C@@H]8CC[C@@]7(C)[C@]5(C)CC6)OCC(O)C4O)C(O)C3OC3OCC(O)(CO)C3O)C2O)C(O)C(O)C1O (some centres not stated)
TGI (COLO 205 colon): 6.37 µM
TGI (CAKI-1 renal): 13.8 µM
TGI (NCI/ADR-RES ovarian): 41.7 µM
TGI (HCT-116 colon): 30.6 µM
TGI (HL-60(TB) leukemia): 30.2 µM
TGI (TK-10 renal): 32.1 µM
TGI (SF-268 CNS): 28.4 µM
TGI (KM12 colon): 52.4 µM
TGI (NCI-H460 lung): 42.2 µM
TGI (SF-539 CNS): 44.8 µM
TGI (HOP-92 NSCLC): 50.3 µM
TGI (U251 CNS): 37.4 µM
TGI (RXF 393 renal): 34.1 µM
TGI (EKVX NSCLC): 15.8 µM
TGI (SK-MEL-5 melanoma): 29.8 µM
TGI (LOX IMVI melanoma): 43.2 µM
TGI (OVCAR-5 ovarian): 24.3 µM
TGI (MDA-N): 32.5 µM
TGI (NCI-H226 lung): 43 µM
TGI (IGROV1 ovarian): 31.1 µM
TGI (HCC-2998 colon): 14.7 µM
TGI (OVCAR-4 ovarian): 37.2 µM
TGI (SK-MEL-2 melanoma): 30.8 µM
TGI (MALME-3M melanoma): 33.8 µM
TGI (MOLT-4 leukemia): 46.5 µM
TGI (SNB-19 CNS): 29 µM
TGI (K-562 leukemia): > 75 µM
TGI (786-0 renal): 27.8 µM
TGI (M14 melanoma): 10.4 µM
TGI (SR leukemia): 38 µM
TGI (SNB-75 CNS): 39.6 µM
TGI (SN12C renal): 16.4 µM
TGI (RPMI-8226 leukemia): > 100 µM
TGI (MDA-MB-435): 47.3 µM
TGI (MCF7 breast): > 67.9 µM
TGI (SK-MEL-28 melanoma): 13.6 µM
TGI (BT-549 breast): 38 µM
TGI (MDA-MB-231 breast): 30 µM
TGI (UACC-257 melanoma): 28.5 µM
TGI (NCI-H522 lung): 35.7 µM
TGI (T-47D breast): 51.1 µM
TGI (SK-OV-3 ovarian): 34.8 µM
TGI (SW-620 colon): 31.6 µM
TGI (UO-31 renal): 14.2 µM
TGI (ACHN renal): 34 µM
TGI (A549 NSCLC): 18 µM
TGI (DU-145 prostate): 30.3 µM
TGI (PC-3 prostate): 28.6 µM
TGI (HS 578T breast): 35.8 µM
TGI (SF-295 CNS): 32.2 µM
TGI (HCT-15 colon): 38.7 µM
TGI (HOP-62 NSCLC): 34.5 µM
TGI (OVCAR-3 ovarian): 40.8 µM
TGI (HT29 colon): 37.4 µM
TGI (OVCAR-8 ovarian): 40.4 µM
TGI (A498 renal): 13.6 µM
TGI (CCRF-CEM leukemia): 44.7 µM
TGI (UACC-62 melanoma): 31.6 µM
TGI (NCI-H23 lung): 27.1 µM
